Laboratory results published in the supplement of paper PMC10307832.

How the values were obtained:
Assay in all cases: relative viability (nuclei count vs DMSO), 5 days (fraction); higher = more cells survive
PAC-1 + OSI-027 = compound: C=CCc1cccc(/C=N/NC(=O)CN2CCN(Cc3ccccc3)CC2)c1O [PAC-1] + COc1cccc2cc(-c3nc([C@H]4CC[C@H](C(=O)O)CC4)n4ncnc(N)c34)[nH]c12 [OSI-027] (partner 0.5 µM)
Method in brief: (§1)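 Cells from lung cancer lines were seeded into 1536-well plates and, one day later, dosed by pin tool. Treatments were either a single drug or a fixed dose of an anchor drug with five library-drug doses (not always all listed) in √10 steps. After 5 days, nuclei were stained in a one-step fixation (final 0.05% Triton X-100, 1% formaldehyde, 1 ug/ml Hoechst) and counted on 4× images, and relative viability is the treated-to-vehicle nuclei ratio, as the median of duplicate plates.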

Ibrutinib + Bortezomib = compound: C=CC(=O)N1CCC[C@@H](n2nc(-c3ccc(Oc4ccccc4)cc3)c3c(N)ncnc32)C1 [Ibrutinib] + CC(C)C[C@H](NC(=O)[C@H](Cc1ccccc1)NC(=O)c1cnccn1)B(O)O [Bortezomib] (partner 0.002 µM)
Method in brief: as §1

Ibrutinib + Palbociclib = compound: C=CC(=O)N1CCC[C@@H](n2nc(-c3ccc(Oc4ccccc4)cc3)c3c(N)ncnc32)C1 [Ibrutinib] + CC(=O)c1c(C)c2cnc(Nc3ccc(N4CCNCC4)cn3)nc2n(C2CCCC2)c1=O [Palbociclib] (partner 0.5 µM)
Method in brief: as §1

BMX-IN-1 + Linsitinib = compound: C=CC(=O)Nc1cc(-n2c(=O)ccc3cnc4ccc(-c5ccc(NS(C)(=O)=O)cc5)cc4c32)ccc1C [BMX-IN-1] + C[C@]1(O)C[C@@H](c2nc(-c3ccc4ccc(-c5ccccc5)nc4c3)c3c(N)nccn32)C1 [Linsitinib] (partner 1 µM)
Method in brief: as §1

Cell Line | relative viability (PAC-1 + OSI-027; first compound 0.02 µM) | relative viability (PAC-1 + OSI-027; first compound 0.06325 µM) | relative viability (PAC-1 + OSI-027; first compound 0.2 µM) | relative viability (PAC-1 + OSI-027; first compound 2 µM) | relative viability (Ibrutinib + Bortezomib; first compound 0.005 µM) | relative viability (Ibrutinib + Bortezomib; first compound 0.01581 µM) | relative viability (Ibrutinib + Bortezomib; first compound 0.05 µM) | relative viability (Ibrutinib + Bortezomib; first compound 0.1581 µM) | relative viability (Ibrutinib + Bortezomib; first compound 0.5 µM) | relative viability (Ibrutinib + Palbociclib; first compound 0.005 µM) | relative viability (Ibrutinib + Palbociclib; first compound 0.01581 µM) | relative viability (Ibrutinib + Palbociclib; first compound 0.05 µM) | relative viability (Ibrutinib + Palbociclib; first compound 0.1581 µM) | relative viability (Ibrutinib + Palbociclib; first compound 0.5 µM) | relative viability (BMX-IN-1 + Linsitinib; first compound 0.02 µM) | relative viability (BMX-IN-1 + Linsitinib; first compound 0.2 µM) | relative viability (BMX-IN-1 + Linsitinib; first compound 0.6325 µM) | relative viability (BMX-IN-1 + Linsitinib; first compound 2 µM)
201T | 0.702 | 0.754 | 0.848 | 0.839 | 1.05 | 1.06 | 1.13 | 1.09 | 1.09 | 0.225 | 0.327 | 0.377 | 0.378 | 0.36 | 1.13 | 1.02 | 1.04 | 1.01
PC-14 | 1.07 | 0.727 | 0.779 | 0.911 | 0.891 | 0.878 | 0.835 | 0.819 | 0.744 | 0.527 | 0.495 | 0.576 | 0.575 | 0.172 | 1.04 | 1.05 | 1.01 | 0.973
RERF-LC-KJ | 0.5 | 0.548 | 0.59 | 0.463 | 0.96 | 0.977 | 1.03 | 1 | 0.851 | 1.12 | 0.915 | 0.928 | 1.09 | 0.931 | 0.911 | 0.974 | 0.951 | 0.935
HCC-15 | 0.668 | 0.726 | 0.672 | 0.684 | 1.13 | – | – | – | 1.1 | 0.788 | 0.705 | 0.742 | 0.706 | 0.73 | 0.918 | 0.984 | 0.899 | 0.821
NCI-H1755 | 0.717 | 0.722 | 0.601 | 0.72 | 0.914 | 0.983 | 1.02 | 0.95 | 0.969 | 0.473 | 0.442 | 0.467 | 0.455 | 0.495 | 1.04 | 1.09 | 1.1 | 1
NCI-H441 | 0.521 | 0.759 | 0.501 | 0.413 | 0.518 | 0.498 | 0.45 | 0.575 | 0.479 | 0.2 | 0.199 | 0.216 | 0.138 | 0.157 | 0.594 | 0.705 | 0.499 | 0.696
HOP-62 | 0.836 | 0.814 | 0.782 | 0.892 | 0.459 | 1 | 0.816 | 0.834 | 0.804 | 0.542 | 0.442 | 0.42 | 0.459 | 0.516 | 0.959 | 1 | 1.02 | 0.947
ABC-1 | 0.478 | 0.44 | 0.468 | 0.457 | 0.36 | 0.271 | 0.33 | 0.33 | 0.306 | 0.482 | 0.439 | – | – | 0.733 | 0.993 | 0.807 | 0.775 | 0.764
UMC-11 | 0.546 | 0.459 | 0.461 | 0.472 | 0.664 | 0.637 | 0.898 | 0.654 | 0.736 | – | 0.335 | 0.359 | 0.417 | 0.355 | 1.1 | 1.23 | 1.13 | 0.998
BEN | 0.303 | 0.264 | 0.291 | 0.289 | 0.54 | 0.828 | 0.667 | 0.57 | 0.572 | 0.462 | 0.465 | 0.491 | 0.459 | 0.453 | 1.08 | 1.13 | 0.995 | 0.942
NCI-H520 | 0.299 | 0.275 | 0.265 | 0.259 | 0.567 | 0.45 | 0.553 | 0.662 | 0.338 | 0.183 | 0.217 | 0.206 | 0.237 | 0.161 | 1.09 | 1.2 | 1.36 | 1.02
SK-LU-1 | 0.338 | 0.363 | 0.287 | 0.326 | – | 1.11 | 0.897 | 1.14 | 1.23 | 0.372 | 0.365 | 0.392 | 0.407 | 0.365 | 1.3 | 1.15 | 1.21 | 1.09
NCI-H2087 | 0.467 | 0.58 | 0.401 | 0.497 | 0.755 | 0.741 | 0.851 | 0.844 | 0.889 | 0.243 | 0.217 | 0.161 | – | – | 1.14 | 1.11 | 1.34 | 1.1
COR-L 105 | 0.756 | 0.669 | 0.615 | 0.756 | 0.514 | 0.607 | 0.512 | 0.683 | 0.348 | 0.403 | 0.406 | 0.424 | 0.393 | 0.303 | 0.801 | 0.875 | 1.01 | 0.877
EKVX | 0.744 | 0.674 | 0.696 | 0.702 | 0.894 | 0.929 | 0.975 | 0.925 | 0.489 | 0.304 | 0.314 | 0.259 | 0.269 | 0.155 | 1.14 | 1.17 | 1.13 | 1.02
NCI-H23 | 0.629 | 0.493 | 0.589 | 0.65 | 0.839 | 1.02 | 0.938 | 1.07 | 1.13 | 0.484 | 0.465 | 0.456 | 0.53 | 0.506 | 0.614 | 0.606 | 0.471 | 0.548
NCI-H1792 | 0.731 | 0.715 | 0.684 | 0.733 | – | 0.984 | 1 | 0.85 | 0.93 | – | 0.593 | 0.757 | – | 0.683 | 0.431 | 0.795 | 0.449 | 0.51
NCI-H3122 | 1.25 | 0.972 | 0.919 | 0.925 | 1.07 | 1.05 | 1.08 | 0.955 | 1.02 | 0.188 | 0.178 | 0.184 | 0.176 | 0.196 | 1.04 | 1.08 | 1.01 | 1.02
